In the NIST ThermoML archive (doi:10.1016/j.jct.2012.02.036):

Assay: xn = mol fraction of the nth substance listed
Conditions: 101 kPa, Liquid; for mass density: Vibrating tube method

NCCCO [3-amino-1-propanol] + CC(C)CO
Conditions	mass density, 293.15 K [kg/m3]	mass density, 303.15 K [kg/m3]	mass density, 313.15 K [kg/m3]	mass density, 323.15 K [kg/m3]	mass density, 333.15 K [kg/m3]	viscosity, 293.15 K [mPa·s]	viscosity, 303.15 K [mPa·s]	viscosity, 313.15 K [mPa·s]	viscosity, 323.15 K [mPa·s]	viscosity, 333.15 K [mPa·s]
x1 = 0.1037	819.8	811.99	804.06	795.93	787.58	5.051	3.521	2.443	1.637	1.025
x1 = 0.2007	837.1	829.27	821.32	813.22	804.93	6.346	4.093	3.059	2.113	1.408
x1 = 0.3006	854.9	847.02	839.04	830.95	822.7	8.282	5.473	3.688	2.534	1.699
x1 = 0.4002	873.2	865.25	857.25	849.16	840.94	10.89	6.995	4.658	3.177	2.155
x1 = 0.501	891.9	883.89	875.86	867.78	859.58	13.95	8.794	5.767	3.903	2.693
x1 = 0.6007	910.4	902.41	894.47	886.34	878.16	17.71	10.85	7.048	4.73	3.251
x1 = 0.7008	929.5	921.49	913.45	905.35	897.17	21.85	13.33	8.496	5.666	3.88
x1 = 0.8005	948.6	940.49	932.36	924.27	916.24	27.18	16.12	10.09	6.695	4.573
x1 = 0.9005	–	960.24	952.19	944.09	935.93	33.2	19.47	12.19	8.029	5.424
x1 = 1	987.55	979.53	971.47	963.37	955.22	40.45	23.98	15.31	10.22	6.961

NCCCO [3-amino-1-propanol] + CC(C)O
Conditions	mass density, 293.15 K [kg/m3]	mass density, 303.15 K [kg/m3]	mass density, 313.15 K [kg/m3]	mass density, 323.15 K [kg/m3]	mass density, 333.15 K [kg/m3]	viscosity, 293.15 K [mPa·s]	viscosity, 303.15 K [mPa·s]	viscosity, 313.15 K [mPa·s]	viscosity, 323.15 K [mPa·s]	viscosity, 333.15 K [mPa·s]
x1 = 0.1006	807.84	799.47	790.86	781.97	772.74	3.076	2.069	1.334	0.761	–
x1 = 0.2004	830.07	821.75	813.25	804.55	795.57	4.223	2.918	1.964	1.278	0.734
x1 = 0.3	851.78	843.5	835.07	826.48	817.69	5.489	3.955	2.745	1.879	1.203
x1 = 0.4007	873.12	864.86	856.49	848	839.34	7.957	5.363	3.704	2.559	1.75
x1 = 0.5003	894.23	885.99	877.67	869.25	860.69	11.01	7.213	4.931	3.402	2.367
x1 = 0.6	914.21	906	897.72	889.36	880.9	14.58	9.397	6.266	4.356	3.063
x1 = 0.7002	933.43	925.29	916.99	908.67	900.35	19.25	12.09	8.058	5.497	3.88
x1 = 0.8003	952.3	944.26	935.98	927.76	919.55	25.27	15.62	10.17	6.895	4.842
x1 = 0.9001	970.56	962.49	954.37	946.21	937.99	32.08	19.5	12.46	8.337	5.894
x1 = 1	987.65	979.65	971.61	963.52	955.38	40.46	23.98	15.31	10.22	6.962
